According to publication PMC9817100, “Preclinical profiles of SKB264, a novel anti-TROP2 antibody conjugated to topoisomerase inhibitor, demonstrated promising antitumor efficacy compared to IMMU-132” (Frontiers in Oncology, 2022):
Where two headings read alike, the source gives them in different places.

What was measured:
[1] = tested on: HCC1806 (TROP2+); test: cytotoxic assay (CellTiter-Glo, 72 h) HCC1806; assay type: cell-based, human; details: Homo sapiens
Method: (§1) Tumor cells were seeded on 96-well plates at the following concentrations: HCC1806 (3,000 cells per well), NCI-N87 (5,000 cells per well), BxPC-3 (2,000 cells per well), Calu-3 (8,000 cells per well), NCI-H23 (TROP2+, 3,000 cells per well), and NCI-H23 (parental, 3,000 cells per well). After overnight incubation, the diluted testing items were added respectively. After 72 h, cell viability was evaluated using a CellTiter-Glo Luminescent Cell Viability Assay (Promega Corp. Madison, WI), following the manufacturer’s instruction.

[2] = tested on: NCI-N87 (TROP2+); test: cytotoxic assay (CellTiter-Glo, 72 h) NCI-N87; assay type: cell-based; details: Homo sapiens, read-out: IC50 cell growth inhibition
Method: as §1

[3] = tested on: BXPC3 (TROP2+); test: cytotoxic assay (CellTiter-Glo, 72 h) BxPC-3; assay type: cell-based; details: Homo sapiens, read-out: IC50 cell growth inhibition
Method: as §1

[4] = tested on: NCI-H23 (TROP2-); test: cytotoxic assay (CellTiter-Glo, 72 h) NCI-H23 (parental); assay type: cell-based; details: Homo sapiens, read-out: IC50 cell growth inhibition
Method: as §1

[5] = tested on: HCC1806, NCI-N87, BxPC3, Calu3, NCI-H23 (TROP2+), NCI-H23 (parental); test: cytotoxic assay, range over the six tumor cell lines; assay type: cell-based; details: Homo sapiens, read-out: IC50 values, range over six cell lines
Method: as §1
To evaluate the effect of SKB264 on tumor cell proliferation, in vitro growth inhibition of cancer cell lines was determined by CellTiter-Glo Luminescent Cell Viability Assay. Cancer cell lines, including HCC1806, NCI-N87, BxPC3, Calu3, and NCI-H23 (TROP2+), highly expressed TROP2, while NCI-H23 (parental) was TROP2-negative ( Figure 3 ). […] NCI-H23 (TROP2+) cells were more sensitive to SKB264 than parental cells (TROP2−). […] Taken together, after SKB264 endocytosed through its interaction with TROP2 on cell surface, the releasing free KL610023 can inhibit tumor cell proliferation.

[6] = PK of SKB264 and KL610023 in cynomolgus monkeys (serum); assay type: in vivo; details: unconjugated KL610023 0.24 mg/kg single i.v. infusion, n = 6, mean ± SD
Method: The PK properties of SKB264 and Tab were determined by ELISA, for which the lower limit of quantitation was 7.813 ng/ml. The serum concentration of KL610023 was measured by a validated liquid chromatography tandem mass spectrometry (LC/MS-MS), for which the lower limit of quantitation was 0.100 ng/ml. A total of 24 cynomolgus monkeys were randomized into four groups (n = 3/sex/group). Groups #1, #2, and #3 were treated with 1, 3, and 10 mg/kg of SKB264, respectively, via 15 min i.v. infusion once. Group #4 received 0.24 mg/kg of unconjugated KL610023 via i.v. infusion once. The serum concentrations of SKB264, Tab, and KL610023 were continually measured up to 672 h post-dose.
Phoenix WinNonlin 8.1 was used to calculate the PK parameters in the non-compartment model, including t 1/2, T max, C max, AUC0-t, and AUC0-∞. […] The half maximal effective concentration (EC50) and half maximal inhibitory concentration (IC50) were calculated using a nonlinear regression model with sigmoidal fitting. The in vitro antitumor activities of drugs were evaluated by a two-tailed paired t-test.

[7] = payload KL610023 PK in plasma of cynomolgus monkey (Table 5); assay type: in vivo; design: Vz_obs / Cl_obs: unit not given here; details: KL610023 administered, n=4, dose not given
Description: Since the metabolism of ADC is different from that of the toxic payload ([30], [31]), the linkage of SKB264 mAb can dramatically prolong the half-life of KL610023 as compared to KL610023 alone. Nevertheless, after being released from SKB264, KL610023 could be rapidly eliminated. […] Overall, the proprietary technology used in our study to construct SKB264 could ensure a more precise delivery process.

[8] = both sexes, cynomolgus monkey, in vivo, iv

## CC[C@@]1(O)C(=O)OCc2c1cc1n(c2=O)Cc2c-1nc1ccccc1c2CCN(C(C)C)S(C)(=O)=O [KL610023]
[1]; HCC1806 (TROP2+), 72 h, Figure 2D, read-out: IC50 cell growth inhibition
  IC50: 1.5 nM
[1]; HCC1806, payload comparison, Figure 7C, duplicates, read-out: IC50 inhibition of proliferation of HCC1806 cells
  IC50: 1.82 nM
[2]
  IC50: 2.01 nM
[3]
  IC50: 6 nM
[4]
  IC50: 2.14 nM
[5]
  IC50: 1.36 to 6 nM
[6]; both sexes, cynomolgus monkey, in vivo, iv, 0.24 mg/kg
  half-life: 5.7 h
[6]; [8]
  AUC(0-inf): 230 ± 43.9 ng·h/mL
  AUC(0-t): 228 ± 44.2 ng·h/mL
[6]; 0.24 mg/kg
  t 1/2: 5.65 ± 2.53 h
[7]
  AUC(0-inf): 97 ± 26.9 ng·h/mL
  AUC(0-t): 97 ± 26.7 ng·h/mL
  Cl_obs: 535 ± 148
  Cmax: 273 ± 54.4 ng/mL
  Vz_obs: 1119 ± 548
  half-life: 1.6 h
